Reference: patent US8980851B2, “Methods for bone treatment by modulating an arachidonic acid metabolic or signaling pathway” (Accelalox, Inc., priority 2005, dated 2015)
Like-named read-outs stand apart in the source and are kept apart here.

Columns and labels:
[1] = test system: mouse calvaria; conditions: in vitro organ culture; cited from earlier work
[2] = test system: fetal rat calvaria (osteoblast) cells; conditions: in vitro; cited from earlier work
[3] = test system: closed femur fracture; test: Torsional mechanical testing of fractured rat femurs (Example 4); assay type: in vivo, Sprague-Dawley rats; conditions: 5 weeks of healing; for greater peak torque than vehicle treated rats: Inhibitor A 30 mg/kg, Inhibitor B 5 mg/kg, 2 doses daily until day 21; for mode of femur failure in torsional testing (boney union vs non-union): all femurs, vehicle 13% (2 of 15) non-unions
Description: (§1) Sprague-Dawley rats (3 months old) underwent a standard closed femur fracture procedure as described in the art (Simon et al. Journal of Bone and Mineral Research, 17(6): 963-976 (2002); Bonnarens and Einhorn, Production of a standard closed fracture in laboratory animal bone. Journal of Orthopaedic Research, 2: 97-101 (1984)). The impending fracture was stabilized with an intramedullary stainless steel pin. Beginning 4 hours after fracture the rats were treated with vehicle (1% methylcellulose) or inhibitors of 5-LO suspended in 1% methylcellulose Inhibitor A (NDGA) was administered at 30 mg/kg and Inhibitor B (AA-861) was administered at 5 mg/kg. The day after surgery and continuing until day 21 post-fracture, experimental rats were treated with 2 doses of inhibitor (either A or B), the first dose between […] and then again with another dose 8-10 hours later. Control rats were treated similarly but with carrier only (1% methylcellulose). Three weeks after fracture the rats were anesthetized and high resolution radiographs were made of the fractured femurs using a Packard Faxitron and Kodak MinR2000 mammography film (FIGS. 8A, 8B, and 8C). Five weeks after fracture the rats were sacrificed, femurs resected, and assayed for structural mechanical properties by torsional mechanical testing (FIG. 8D).
Torsional mechanical testing was used to measure the peak torque sustained by each femur after 5 weeks of healing.

[4] = test system: closed femur fracture; test: Rat closed femur fracture healing, radiographs (Example 4); assay type: in vivo, Sprague-Dawley rats; conditions: treated rats vs untreated rats
Description: as §1

[5] = test system: Saos-2 cells; conditions: cited from earlier work
[6] = test system: G292 cells; conditions: cited from earlier work
[7] = test system: primary rat calvaria (osteoblast) cultures; conditions: in vitro; cited from earlier work
[8] = higher concentration (0.3-1 micromolar)

Row | Compound | BMP2 induced increase in mouse calvaria thickness [1] | alkaline phosphatase activity [2] | bone nodule formation [2] | greater peak torque than vehicle treated rats [3] [%] | mode of femur failure in torsional testing (boney union vs non-union) [3] | osteogenesis / fracture healing (FIG. 8, x-rays) [4] | proliferation of Saos-2 cells ([5]; concentration not given) | proliferation of primary rat osteoblast cultures [7] | other results
1 | 5-hydroxyeicosatetraenoic acid [Inhibitor 5-HETE] | prevented | reduce | reduce | – | – | – | – | – | –
2 | CC(Cc1ccc(O)c(O)c1)C(C)Cc1ccc(O)c(O)c1 (stereo not drawn) [Inhibitor A, nordihydroguaiaretic acid] | – | – | – | 22 | failed as boney unions | accelerated | – | – | –
3 | CC1=C(C)C(=O)C(CCCCC#CCCCC#CCO)=C(C)C1=O [Inhibitor B, 2-(12-hydroxydodeca-5,10-diynyl)-3,5,6-trimethyl-1,4-benzoquinone] | – | – | – | 53 | failed as boney unions | accelerated | no effect | – | –
4 | CCCCC/C=C\C[C@@H](O)/C=C/C=C/C=C\[C@@H](O)CCCC(=O)O [LTB4] | prevented | reduce | reduce | – | – | – | – | reduces proliferation | proliferation of G292 cells [6, 8]: promote proliferation; proliferation of Saos-2 cells [5, 8]: promote proliferation
5 | CCCCC/C=C\C\C=C/C=C/C=C/[C@@H](SC[C@H](NC(=O)CC[C@H](N)C(=O)O)C(=O)NCC(=O)O)[C@@H](O)CCCC(=O)O [LTC4] | – | – | – | – | – | – | no effect | no effect | proliferation of G292 cells ([6]; concentration not given): promote proliferation
6 | CCCCC/C=C\C\C=C/C=C/C=C/[C@@H](SC[C@H](N)C(=O)NCC(=O)O)[C@@H](O)CCCC(=O)O [LTD4] | – | no effect | no effect | – | – | – | – | – | –
